Data set [1] has as its system NCl-H460 cells. The data set is described as follows: cell competition experiment with I125-labeled derivative as tracer. Type of data set: cell-based, human. As to the method: To determine the specificity of (2S,4S)-2-Amino-4-(4-hydroxy-3-[1-125]-iodobenzyl)-pentanedioic acid, the compound was used as tracer in a cell competition experiment in H460 tumor cells against an excess of L-Glutamic acid (1 mM).
FIG. 3: Examination of biological activity of (2S,4S)-2-Amino-4-(3-[4-[I-125]-iodophenoxy]propylypentanedioic acid in a cell competition experiment. (NCl-H460 cells, 30 min incubation with I125-labeled derivative in PBS-buffer, concentration of “cold” derivative 1 mM).
FIG. 5: Determination of biological activity of (2S,4S)-2-Amino-4-(4-hydroxy-3-[I-125]-iodobenzyl)-pentanedioic acid in a cell competition experiment. (NCl-H460 cells, 10 min incubation with [I125]-labeled derivative in PBS-buffer, concentration of L-Glutamate 1 mM).

Data set [2] concerns NCl-H460 (human NSCLC) tumor cells. As to the kind of experiment: cell competition experiment with 3H-glutamic acid as tracer, NCl-H460 cells. The format is cell-based. As to the method: FIG. 9 Examination of biological activity of (S)-2-Amino-5-(4-iodobenzyl)-hexanedioic acid in a cell-competition-experiment (H460 cells, 30 min incubation with 3H-glutamic acid in PBS-Puffer, concentration of competitor 1 mM and 0.1 mM).
The specificity of binding to NCl-H460 (human NSCLC) tumor cells was examined using 3H-Glutamic acid as tracer and (2S,4S)-2-Amino-4-(3-[4-iodophenoxy]propyl)-pentanedioic acid in concentrations ranging from 4 μM to 1 mM.
(§1) The specificity of binding was examined in a cell competition experiment using 3H-glutamic acid as tracer and (2S,4S)-2-Amino-4-(4-iodo-benzyl)-pentanedioic acid in excess (1 mM) to compete for transporter.
FIG. 1: Concentration dependent blocking of 3H-Glutamic acid uptake in H460 cells using different concentrations of (2S,4S)-2-Amino-4-(3-[4-iodophenoxy]propyl)-pentanedioic acid.
(§2) FIG. 4: Examination of biological activity of (2S,4S)-2-Amino-4-(4-iodo-benzyl)-pentanedioic acid in a cell competition experiment. (NCl-H460 cells, A549 cells, 10 min incubation with 1 μCi 3H-Glutamic acid in PBS-buffer, concentration of test compound 1 mM).
The ability of (S)-2-Amino-5-(4-iodobenzyl)-hexanedioic acid to compete with uptake of glutamic acid into tumor cells was examined. Therefore, tumor cells were co-incubated with 3H-labeled glutamic acid and (S)-2-Amino-5-(4-iodobenzyl)-hexanedioic acid. This compounds was used in large excess to the tracer 3H-glutamic acid. Two concentrations were examined (1mM an 0.1 mM).

In the next data set the test system is H460 tumor bearing mice. As to the kind of experiment: Biodistribution in H460 tumor bearing mice. Type of data set: in vivo, NMRI (nu/nu) mice. The note with it: for Bilanz/summary Recovery / Bilanz/summary urine: in % (unit assumed). As to the method: Biodistribution in H460 tumor bearing mice. To test the pharmacokinetic properties of (2S,4S)-2-Amino-4-(4-[I-125]-iodo-benzyl)-pentanedioic acid, the iodinated compound was examined in H460 tumor bearing mice. NMRI (nu/nu) mice were inoculated with H460 tumor cells 8 to 10 days before the biodistribution studies. 185 kBq of activity of the tracer was injected into each mouse. n=3 mice were used at every time point. After injection of the I125-labeled compound, mice were sacrificed at the time points indicated. All organs were removed and radioactivity was determined using a γ-counter. […] Very rapid clearance of radioactivity takes place via the kidneys, with more than 90% of activity being excreted after 30 min p.i.

In another data set the test system is H460 tumor cells. As to the kind of experiment: retention of activity in tumor cells (efflux). Type of data set: cell-based, human. The note with it: H460 cells loaded 30 min; after 30 min in new PBS-buffer (efflux conditions). As to the method:
FIG. 7 Examination of retention of (2S,4S)-2-Amino-4-(4-[I-125]odo-benzyl)-pentanedioic acid in H460 tumor cells. H460 cells were loaded with 0.25 MBq (2S,4S)-2-Amino-4-(4-[I-125]-iodo-benzyl)-pentanedioic acid for 30 min in PBS/BSA. After washing, the cells were incubated with new buffer (without radioactivity) for additional 10, 20, 30 min. The release of radioactivity into the supernatant as well as the retention inside the cells was determined.
In a second experiment, the retention of activity in tumor cells was examined. H460 cells were loaded with 0.25 MBq (2S,4S)-2-Amino-4-(4-[I-125]-iodo-benzyl)-pentanedioic acid for 30 minutes in PBS/BSA-buffer. After this uptake, the buffer was removed and the cells were washed with PBS. The cells were then incubated with new PBS-buffer (without activity) for up to 30 min. The release of activity into the supernatant as well as the retention of activity inside the cells was examined. It was discovered, that more than 75% of activity were retained in the tumor cells after 30 min under these efflux conditions (see FIG. 7).

Data set [3] has as its system NCl-H460 cells. As to the kind of experiment: tumor cell uptake/binding experiment with I125-labeled derivative. The format is cell-based, human. As to the method: FIG. 6 The time dependence of uptake of (2S,4S)-2-Amino-4-(4-[I-125]-iodo-benzyl)-pentanedioic acid was determined. H460 cells were incubated with 0.25 MBq (2S,4S)-2-Amino-4-(4-[I-125]-iodo-benzyl)-pentanedioic acid for up to 60 min and the cell-bound fraction was determined after 10, 20, 30 and 60 min).
In a next experiment, NCl-H460 cells were incubated with [I125]-labeled (2S,4S)-2-Amino-4-(3-[4-[I-125]-iodophenoxy]propylypentanedioic acid for up to 30 min and the cell-bound fraction was determined. Approximately 12% of applied activity was bound to the cells after 30 min incubation (FIG. 2).
FIG. 2: E xamination of biological activity of (2S,4S)-2-Amino-4-(3-[4-[I-125]-iodophenoxy]propylypentanedioic acid in a tumor cell uptake/binding experiment. (NCl-H460 cells, up to 30 min incubation with I125-labeled derivative).
Cell uptake & Retention of (2S,4S)-2-Amino-4-(4-[1-125]-iodo-benzyl)-pentanedioic acid—For determination of the biological activity of (2S,4S)-2-Amino-4-(4-[I-125]-iodo-benzyl)-pentanedioic acid, the I-125 labeled compound was used as tracer in a cell uptake experiment using H460 (human NSCLC) cells. Approximately 100.000 cells were incubated with 0.25 MBq (2S,4S)-2-Amino-4-(4-[I-125]-iodo-benzyl)-pentanedioic acid for up to 60 minutes in PBS-buffer containing 0.1% BSA and the cell-bound fraction was determined. […] Approximately 22,3% of applied dose was taken up by the cells during the 60 min incubation period (see FIG. 6).

Data set [4] has as its system NCl-H460 (human NSCLC) tumor bearing nude-mice. The data set is described as follows: SPECT imaging in tumor bearing nude-mice. Type of data set: in vivo, nude-mice (NMRI nu/nu). The note with it: approx. 10 MBq; images acquired at 60 min p.i. for 35 min. As to the method: FIG. 8 SPECT imaging with (2S,4S)-2-Amino-4-(4-[I-125]odo-benzyl)-pentanedioic acid after injection into H460 tumor bearing mouse.
SPECT imaging. (2S,4S)-2-Amino-4-(4-[I-125]-iodo-benzyl)-pentanedioic acid was examined in NCl-H460 (human NSCLC) tumor bearing nude-mice (NMRI nu/nu). Approx. 10 MBq of (2S,4S)-2-Amino-4-(4-[I-125]-iodo-benzyl)pentanedioic acid was injected into the mouse. SPECT imaging was performed using a γ-camera (Nucline SPIRIT DH-V). Images were aquired at 60 min p.i. for 35 min with 60 sec/frame.

For data set [5], the system named is A549 (human NSCLC cell line). As to the kind of experiment: cell competition experiment with 3H-glutamic acid as tracer, A549 cells. The note with it: test compound 1 mM, 10 min incubation with 1 μCi 3H-Glutamic acid in PBS-buffer. The format is cell-based. As to the method:
as §1, §2

Structures are written as SMILES.

Take `N[C@@H](C[C@H](Cc1ccc(O)c([125I])c1)C(=O)O)C(=O)O` [(2S,4S)-2-Amino-4-(4-hydroxy-3-[I-125]-iodobenzyl)-pentanedioic acid]: the “uptake of I125 tracer against excess of L-Glutamic acid” value in the data set on NCl-H460 cells [1] (H460 cells, 10 min incubation in PBS-buffer, L-Glutamate 1 mM) was “the uptake was blockable by excess of glutamic acid”.
In the case of `N[C@@H](CCC(Cc1ccc(I)cc1)C(=O)O)C(=O)O` (stereo partly drawn) [(S)-2-Amino-5-(4-iodobenzyl)-hexanedioic acid], the “uptake of 3H-glutamic acid” value in data set [2] (H460 cells, 30 min incubation, competitor 1 mM and 0.1 mM) is recorded as “strongly reduces the uptake of glutamic acid”.
In the data set with H460 tumor bearing mice (0.5 h), `N[C@@H](C[C@H](Cc1ccc([125I])cc1)C(=O)O)C(=O)O` [(2S,4S)-2-Amino-4-(4-[I-125]-iodo-benzyl)-pentanedioic acid] yielded a Bilanz/summary carcass of 3.4%, a Bilanz/summary organs of 10.2%, a blood of 0.28 % Dosis/g and a gallbladder of 8.09 % Dosis/g. In the data set with H460 tumor bearing mice (0.5 h), this compound gave an intestine of 1.26 % Dosis/g, a kidney of 2.14 % Dosis/g, a liver of 0.25 % Dosis/g and a pancreas of 0.62 % Dosis/g. In the data set with H460 tumor bearing mice (0.5 h), the thyroid was 0.43 % Dosis/g, the tumor turned out to be 4.12 % Dosis/g, the “Bilanz/summary Recovery” value was found to be 112.7 and the Bilanz/summary urine is recorded as 99.1. In the data set on H460 tumor bearing mice (30 min p.i., 185 kBq), the “uptake in the tumor” value is given as 4.12 % injected dose per gram of tumor. In addition, in the data set with H460 tumor bearing mice (1 h), the Bilanz/summary carcass was 2.2%, the Bilanz/summary faeces turned out to be 0.7%, the Bilanz/summary organs was found to be 6.8% and the blood is reported as 0.13 % Dosis/g. In the data set with H460 tumor bearing mice (1 h), this compound had a gallbladder of 5.00 % Dosis/g, an intestine of 0.85 % Dosis/g, a kidney of 0.83 % Dosis/g and a liver of 0.07 % Dosis/g. In the data set with H460 tumor bearing mice (1 h), the pancreas is 0.12 % Dosis/g, the thyroid came out at 0.72 % Dosis/g, the tumor was determined as 3.68 % Dosis/g and the “Bilanz/summary Recovery” value turned out to be 109.3. In the data set with H460 tumor bearing mice (1 h), this compound registered a Bilanz/summary urine of 99.6. In the data set with H460 tumor bearing mice (2 h), this compound returned a Bilanz/summary carcass of 1.1%, a Bilanz/summary faeces of 2%, a Bilanz/summary organs of 3.8% and a blood of 0.08 % Dosis/g. In the data set on H460 tumor bearing mice (2 h), this compound showed a gallbladder of 4.73 % Dosis/g, an intestine of 0.78 % Dosis/g, a kidney of 0.24 % Dosis/g and a liver of 0.03 % Dosis/g. Also, in the data set with H460 tumor bearing mice (2 h), the pancreas is 0.06 % Dosis/g, the thyroid was 0.42 % Dosis/g, the tumor is recorded as 1.90 % Dosis/g and the “Bilanz/summary Recovery” value was determined as 109.7. The same compound displayed a Bilanz/summary urine in the data set on H460 tumor bearing mice (2 h) of 102.8. In the data set on H460 tumor bearing mice (4 h), this compound gave a Bilanz/summary carcass of 0.5%, a Bilanz/summary faeces of 0.1%, a Bilanz/summary organs of 2.8% and a blood of 0.06 % Dosis/g. In the data set with H460 tumor bearing mice (4 h), the gallbladder is 6.63 % Dosis/g, the intestine stood at 1.32 % Dosis/g, the kidney was determined as 0.10 % Dosis/g and the liver is on record as 0.03 % Dosis/g. For the same compound, in the data set on H460 tumor bearing mice (4 h), the pancreas worked out at 0.03 % Dosis/g, the thyroid is 1.05 % Dosis/g, the tumor is reported as 1.55 % Dosis/g and the “Bilanz/summary Recovery” value was determined as 115.3. This compound returned a Bilanz/summary urine with H460 tumor bearing mice (4 h) of 111.9. In the data set on H460 tumor bearing mice (after 30 min p.i.), the “activity excreted via the kidneys” value is listed as “more than 90 % of activity”. The “activity retained in the tumor cells” value in the data set with H460 tumor cells was “more than 75 % of activity”. Moreover, the “uptake by the cells” value with NCl-H460 cells [3] (H460 cells, 0.25 MBq, 60 min incubation, PBS-buffer containing 0.1% BSA) was “Approximately 22,3 % of applied dose”. Moreover, the “time dependence of uptake” value with NCl-H460 cells [3] (H460 cells, 0.25 MBq, up to 60 min, PBS-buffer containing 0.1% BSA) is listed as “A time-dependent uptake was observed”. For the same compound, in data set [4], the “tumor visibility in SPECT-images” value is “The tumor was very well visible”.
Turning to `N[C@@H](C[C@H](Cc1ccc(I)cc1)C(=O)O)C(=O)O` [(2S,4S)-2-Amino-4-(4-iodo-benzyl)-pentanedioic acid], the “uptake of 3H-glutamic acid” value was “able to reduce the uptake of glutamic acid” in data set [5] and “able to reduce the uptake of glutamic acid” in data set [2] (NCl-H460 cells, test compound 1 mM, 10 min incubation with 1 μCi 3H-Glutamic acid in PBS-buffer).
In the case of `N[C@@H](C[C@H](CCCOc1ccc(I)cc1)C(=O)O)C(=O)O` [(2S,4S)-2-Amino-4-(3-[4-iodophenoxy]propyl)-pentanedioic acid], in data set [2] (NCl-H460 cells, test compound 4 μM to 1 mM), the “uptake of 3H-glutamic acid (blocking)” value is “able to reduce the uptake of glutamic acid in NCl-H460 cells in a concentration dependent manner”.
For `N[C@@H](C[C@H](CCCOc1ccc([125I])cc1)C(=O)O)C(=O)O` [(2S,4S)-2-Amino-4-(3-[4-[I-125]-iodophenoxy]propyl)-pentanedioic acid], the cell-bound fraction entry in the data set with NCl-H460 cells [3] (NCl-H460 cells, after 30 min incubation) is “Approximately 12 % of applied activity”. Further, in the data set with NCl-H460 cells [1] (NCl-H460 cells, 30 min incubation in PBS-buffer, cold derivative 1 mM), the “binding of I125 tracer with cold derivative in excess” value is recorded as “a large decrease in binding was observed”.
